Measurements from ChEMBL document CHEMBL5058564, “EUbOPEN Chemogenomics Library 2 (Incucyte)” (2022).

Key:
Type in all cases: toxicity, cell-based
U2OS = experiment: Incucyte cell viability with U2OS; conditions: human, 10 µM, compound concentration 10 uM
Fibroblast = experiment: Incucyte cell viability with human fibroblast; conditions: 10 µM, compound concentration 10 uM
HEK-293T = experiment: Incucyte cell viability with HEK293T; conditions: human, 10 µM, compound concentration 10 uM
[1] = 0 h, replicate number 1, timepoint 0 hours
[2] = 0 h, replicate number 2, timepoint 0 hours
[3] = 6 h, replicate number 1, timepoint 6 hours
[4] = 6 h, replicate number 2, timepoint 6 hours
[5] = 12 h, replicate number 1, timepoint 12 hours
[6] = 12 h, replicate number 2, timepoint 12 hours
[7] = 18 h, replicate number 1, timepoint 18 hours
[8] = 18 h, replicate number 2, timepoint 18 hours
[9] = 24 h, replicate number 1, timepoint 24 hours
[10] = 24 h, replicate number 2, timepoint 24 hours
Note: unitless GR value; below 1 slowed growth and below 0 cell loss.

Row | Compound | Growth Rate (U2OS; [2]) | Growth Rate (U2OS; [3]) | Growth Rate (U2OS; [4]) | Growth Rate (U2OS; [5]) | Growth Rate (U2OS; [6]) | Growth Rate (U2OS; [7]) | Growth Rate (U2OS; [8]) | Growth Rate (U2OS; [9]) | Growth Rate (U2OS; [10]) | Growth Rate (Fibroblast; [1]) | Growth Rate (Fibroblast; [2]) | Growth Rate (Fibroblast; [3]) | Growth Rate (Fibroblast; [4]) | Growth Rate (Fibroblast; [5]) | Growth Rate (Fibroblast; [8]) | Growth Rate (Fibroblast; [9]) | Growth Rate (HEK-293T; [2]) | Growth Rate (HEK-293T; [3]) | Growth Rate (HEK-293T; [4]) | Growth Rate (HEK-293T; [5]) | also measured
1 | CC(C)(O)C(=O)N1CCN(c2ccc(C(F)(F)F)c(C3=C(c4c[nH]c5ccccc45)C(=O)NC3=O)c2)CC1 | 0.29 | 0.8 | 0.91 | 0.92 | 0.78 | 0.66 | 0.68 | 0.67 | 0.58 | -0.17 | -0.42 | -0.69 | 0.17 | -0.33 | -0.06 | -0.3 | 0.33 | 0.49 | 0.88 | 0.3 | Growth Rate (U2OS; [1]): -0.52; Growth Rate (Fibroblast; [6]): 0.04; Growth Rate (Fibroblast; [7]): -0.31; Growth Rate (Fibroblast; [10]): -0.09; Growth Rate (HEK-293T; [6]): 0.37; Growth Rate (HEK-293T; [7]): 0.44; Growth Rate (HEK-293T; [8]): 0.36; Growth Rate (HEK-293T; [9]): 0.33
2 | CO/C1=C/C(C)=C\[C@@H](C)[C@@H](O)[C@@H](C)C/C(C)=C\C=C/[C@H](OC)C([C@@H](C)[C@@H](O)[C@H](C)[C@@]2(O)C[C@@H](O)[C@H](C)[C@@H](C(C)C)O2)OC1=O (some centres not stated) |  | 0.5 | 0.63 | 0.37 | 0.39 | 0.23 | 0.18 | 0.14 | 0.12 | 0.09 | -0.31 | -0.77 | -0.59 | -0.79 | -0.46 | -0.61 |  | -0.8 | -0.9 | -0.61 | Growth Rate (Fibroblast; [6]): -0.56; Growth Rate (Fibroblast; [7]): -0.72; Growth Rate (Fibroblast; [10]): -0.4; Growth Rate (HEK-293T; [6]): -0.69; Growth Rate (HEK-293T; [7]): -0.45; Growth Rate (HEK-293T; [8]): -0.5; Growth Rate (HEK-293T; [9]): -0.36; Growth Rate (HEK-293T; [10]): -0.38
3 | CC1=C(C)C(=O)C(C(C)(C)CC(=O)N(CCCCSC[C@H]2O[C@@H](n3cnc4c(N)ncnc43)[C@H](O)[C@@H]2O)Cc2cccc(-c3ccc(Cl)cc3)c2)=C(C)C1=O |  | 0.21 | 0.98 | 0.36 | 0.93 | 0.51 | 0.91 | 0.53 | 0.95 | 0.23 | -0.71 | -0.29 | 0.84 | 0.78 |  |  | -1 | 0.57 |  | 0.2 | Growth Rate (HEK-293T; [1]): -0.9; Growth Rate (HEK-293T; [7]): 0.17; Growth Rate (HEK-293T; [9]): 0.16
4 | COc1ccc2[nH]c(I)c(CCNC(C)=O)c2c1 [IODOMELATONIN] | -0.81 |  | 0.81 |  | 0.99 | 0.84 | 0.91 |  | 0.91 |  |  | 0.67 | 0.7 | 0.97 | 0.79 |  | 0.55 | 0.9 | 0.72 |  | 
5 | Br.CS(=O)(=O)Nc1c(O)ccc2c1CCCC2C1=NCCN1 (configuration not stated) | -1 | -0.8 |  | 0.72 |  | 0.68 |  | 0.86 |  | 0.32 | 0.39 |  |  |  |  | 0.94 |  |  | 0.33 | 0.92 | 
6 | COc1cc(/C=C/C(=O)NCCn2c(C)cc3ccccc32)cc(OC)c1OC | -0.39 | 0.34 | 0.73 | 0.62 |  | 0.51 |  | 0.75 |  | 0.86 |  | 0.79 | 0.39 | 0.87 | 0.71 | 0.67 |  | 0.24 | 0.36 | 0.61 | Growth Rate (U2OS; [1]): -0.71; Growth Rate (Fibroblast; [6]): 0.39; Growth Rate (Fibroblast; [7]): 0.66; Growth Rate (Fibroblast; [10]): 0.73; Growth Rate (HEK-293T; [6]): 0.51; Growth Rate (HEK-293T; [7]): 0.69; Growth Rate (HEK-293T; [8]): 0.55; Growth Rate (HEK-293T; [9]): 0.75; Growth Rate (HEK-293T; [10]): 0.76
7 | Cc1ccc(O)c([C@H](CCN(C(C)C)C(C)C)c2ccccc2)c1.O=C(O)C(O)C(O)C(=O)O [TOLTERODINE TARTRATE] | 0.94 | 0.98 |  |  |  |  |  |  |  |  | 0.83 | 0.59 |  | 0.92 |  |  | 0.52 | 0.89 |  | 0.79 | Growth Rate (U2OS; [1]): -0.73
8 | CCCCC[C@H](O)/C=C/[C@H]1[C@H](O)CC(=O)[C@@H]1CCCCCCC(=O)O [ALPROSTADIL] | -1 | -0.08 | 0.85 | 0.28 | 0.88 | 0.53 | 0.83 | 0.85 | 0.97 | -0.23 | 0.17 |  |  |  |  |  | -0.14 | 0.92 |  |  | Growth Rate (U2OS; [1]): 0.29; Growth Rate (HEK-293T; [1]): -0.15; Growth Rate (HEK-293T; [6]): 1; Growth Rate (HEK-293T; [8]): 0.94
9 | N[C@](CC1c2ccccc2Oc2ccccc21)(C(=O)O)[C@H]1C[C@@H]1C(=O)O | 0.8 |  |  |  | 0.92 | 0.9 |  |  |  | 0.29 |  |  | 0.73 |  | 0.82 | 0.68 | -1 | 0.42 |  | 0.5 | Growth Rate (Fibroblast; [6]): 0.93; Growth Rate (Fibroblast; [7]): 0.9; Growth Rate (Fibroblast; [10]): 0.88; Growth Rate (HEK-293T; [1]): 0.78; Growth Rate (HEK-293T; [7]): 0.57; Growth Rate (HEK-293T; [9]): 0.69
